“And” between values parts separate entries of the source, which are not always exact repeats. Equal values may be shown once. Marks after values point to notes of the source that are not given here. One block for each compound: values may come before it.
Tests used:
[1] = target: T1, GlcCer synthase (Canis lupus familiaris, UniProt A0A8I3MXG6); test: Glycosylceramide synthase activity, MDCK cell homogenate (Specific Example 2); format: biochemical, canine
T1 sequence (A0A8I3MXG6 1-394): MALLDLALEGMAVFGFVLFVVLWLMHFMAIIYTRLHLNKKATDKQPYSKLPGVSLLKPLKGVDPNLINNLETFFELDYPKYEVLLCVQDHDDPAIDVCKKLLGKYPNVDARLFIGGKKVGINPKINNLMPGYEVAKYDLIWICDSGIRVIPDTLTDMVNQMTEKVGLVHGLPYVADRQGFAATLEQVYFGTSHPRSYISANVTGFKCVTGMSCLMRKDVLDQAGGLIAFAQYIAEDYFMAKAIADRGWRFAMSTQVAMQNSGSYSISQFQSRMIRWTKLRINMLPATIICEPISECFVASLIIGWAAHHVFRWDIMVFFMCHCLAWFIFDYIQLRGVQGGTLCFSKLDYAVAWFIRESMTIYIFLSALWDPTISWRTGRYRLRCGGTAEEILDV
Experimental: Glycosylceramide synthase activity. The enzyme activity was measured by the method previously described in Skukla, G. et al., Biochim. Biophys. Acta, 1083:101-108 (1991). MDCK cell homogenate (120 μg of protein) was incubated with uridinediphosphate [^3H]glucose (100,000 cpm) and liposomes consisting of 85 μg octanoylsphingosine, 570 μg dioleoyphosphatidylcholine and 100 μg sodium sulfatide in 200 μl of reaction mixture and kept for 1 h at 37° C. P4 and P4 derivatives dissolved in dimethyl sulfoxide were dispersed into the reaction mixture after adding liposomes. The final concentration of dimethyl sulfoxide was kept 1% under which the enzyme activity was not at all inhibited.

[2] = system: GlcCer synthase of MDCK cell homogenates; test: Inhibition of ceramide glucosyltransferase (GlcCer synthase) of MDCK cell homogenates; format: biochemical, canine; details: triplicate ± SD, samples partly isomer mixtures
Experimental: Assay of sphingolipid enzymes. The inhibitors were evaluated for their effectiveness against the GlcCer synthase of MDCK cell homogenates by incubation in a thermostatted ultrasonic bath (Radin N. S. et al., “Ultrasonic Baths as Substitutes for Shaking Incubator Baths,” Enzyme, 45:67-70 (1991)) with octanoyl sphingosine and uridinediphospho[^3H]glucose (Shukla, G. S. et al., “Glucosylceramide Synthase of Mouse Kidney: Further Characterization and Improved Assay Method,” Arch. Biochem. Biophys., 283:372-378 (1990)). The lipoidal substrate (85 μg) was added in liposomes made from 0.57 mg dioleoylphosphatidylcholine and 0.1 mg of Na sulfatide. Confluent cells were washed, then homogenized with a micro-tip sonicator at 0° C. for 3×30 sec; ˜0.2 mg of protein was used in each assay tube. In the case of the aromatic inhibitors, the test compound was simply evaporated to dryness from solution in the incubation tube. […] The aliphatic inhibitors, which appeared to be less soluble in water, were added as part of the substrate liposomes.

[3] = system: MCF-7 breast carcinoma cells; test: Tumor cell growth in vitro (sulforhodamine B), MCF-7; format: cell-based, human; details: Homo sapiens, MCF7, rounded off to one digit, read-out: Inhibition of tumor cell growth in vitro, IC50
Experimental: (§1) Growth of cell lines. Comparisons of different inhibitors with regard to suppression of human cancer cell growth were made by the University of Michigan Cancer Center in vitro Drug Evaluation Core Laboratory. MCF-7 breast carcinoma cells, HT-29 colon adenocarcinoma cells, H-460 lung large cell carcinoma cells, and 9L brain gliosarcoma cells were grown in RPMI 1640 medium with 5% fetal bovine serum, 2 mM glutamine, 50 units/ml of penicillin, […] of streptomycin, and 0.1 mg/ml of neomycin. UMSCC-10A head and neck squamous carcinoma cells were grown in minimal essential medium with Earle salts and the same supplements. Medium components were from Sigma Chemical Co. Cells were plated in 96-well microtiter plates (1000 cells/well for H-460 and 9L cells, and 2000 cells/well for the other lines), and the test compounds were added 1 day later. The stock inhibitor solutions, 2 mM in 2 mM BSA, were diluted with different amounts of additional 2 mM BSA, then each solution was diluted 500-fold with growth medium to obtain the final concentrations indicated in the Figures and Tables.
(§2) Five days after plating the H-460 and 9L cells, or 6 days for the other lines, cell growth was evaluated by staining the adhering cells with sulforhodamine B and measuring the absorbance at 520 nm (Skehan, P. et al., “New Colorimetric Cytotoxicity Assay for Anticancer-Drug Screening,” J. Natl. Cancer Inst., 82:1107-1112 (1990)). The absorbance of the treated cultures is reported as percent of that of control cultures, to provide an estimate of the fraction of the cells that survived, or of inhibition of growth rate.

[4] = system: H-460 lung large cell carcinoma cells; test: Tumor cell growth in vitro (sulforhodamine B), H-460; format: cell-based, human; details: Homo sapiens, NCI-H460, rounded off to one digit, read-out: Inhibition of tumor cell growth in vitro, IC50
Experimental: as §1, §2

[5] = system: HT-29 colon adenocarcinoma cells; test: Tumor cell growth in vitro (sulforhodamine B), HT-29; format: cell-based, human; details: Homo sapiens, rounded off to one digit, read-out: Inhibition of tumor cell growth in vitro, IC50
Experimental: as §1, §2

[6] = system: 9L brain gliosarcoma cells; test: Tumor cell growth in vitro (sulforhodamine B), 9L; format: cell-based
Experimental: as §1, §2

[7] = system: UMSCC-10A head and neck squamous carcinoma cells; test: Tumor cell growth in vitro (sulforhodamine B), UMSCC-10A; format: cell-based, human; details: Homo sapiens, rounded off to one digit, read-out: Inhibition of tumor cell growth in vitro, IC50
Experimental: as §1, §2

[8] = target: T2, 1-O-acylceramide synthase (Canis lupus familiaris, UniProt Q6XPZ3); test: 1-O-acylceramide synthase (transacylase) assay; format: biochemical; details: D-threo enantiomers, FIG. 12
T2 construct: the 1-O-acylceramide synthase assayed in the cellular homogenates; endogenous in cells; host or cells: cellular homogenates (MDCK, from context)
T2 sequence (Q6XPZ3 32-408): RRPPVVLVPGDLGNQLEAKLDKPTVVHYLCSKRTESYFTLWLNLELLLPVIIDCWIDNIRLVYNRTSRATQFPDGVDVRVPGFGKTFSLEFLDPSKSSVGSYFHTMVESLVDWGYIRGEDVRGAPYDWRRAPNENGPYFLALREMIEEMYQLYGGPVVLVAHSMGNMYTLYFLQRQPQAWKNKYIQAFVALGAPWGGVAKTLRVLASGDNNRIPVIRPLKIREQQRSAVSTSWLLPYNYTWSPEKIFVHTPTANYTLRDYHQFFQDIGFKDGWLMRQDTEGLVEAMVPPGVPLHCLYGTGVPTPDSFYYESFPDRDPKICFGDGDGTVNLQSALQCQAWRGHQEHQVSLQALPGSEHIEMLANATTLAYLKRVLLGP
Excerpt: Distinguishing Between Inhibition of GlcCer Synthase and 1-O-acylceramide Synthase Inhibition. […] An alternative pathway for ceramide metabolism was subsequently identified, the acylation of ceramide at the 1-hydroxyl position, which was blocked by both threo and erythro diastereomers of PDMP. The specificities of D-threo-P4, D-threo-3′,4′-ethylenedioxy-P4, and D-threo-(4′-hydroxy)-P4 for GlcCer synthase were studied by assaying the transacylase.

[9] = system: MDCK cells; test: GlcCer, ceramide and diradylglycerol content of treated MDCK cells (Specific Example 2); format: cell-based, canine
Experimental: Cell culture and lipid extraction. One half million of MDCK cells were seeded into 10 cm style dish containing 8 ml serum free DMEM supplemented medium. Shayman, J. A. et al., J. Biol. Chem., 265:12135-12138 (1990). […] The GlcCer synthase inhibitors were added into the medium as a one to one complex with delipidated BSA. Abe, A. et al., J. Lipid. Res., 36:611-621 (1995); Abe, A. et al., Biochim. Biophys. Acta, 1299:331-341 (1996). The cells were incubated for 24 h or 48 h with the inhibitors. After the incubation, the cells were washed twice with 8 ml of cold PBS and fixed with 2 ml of cold methanol. The fixed cells were scraped and transferred to a glass tube. Another one ml of methanol was used to recover the remaining cells in the dish.
Three ml of chloroform was added to the tube and briefly sonicated using a water bath type sonicator. After centrifugation at 800 g for 5 min, the supernatant was transferred into another glass tube. The residues were reextracted with chloroform/methanol (1/1). After the centrifugation, the resultant supernatant was combined with the first one. The residues were air-dried and kept for protein analysis. Adding 0.9% NaCl to the supematant combined, the ratio of chloroform/methanol/aqueous was adjusted to 1/1/1. After centrifugation 800 g for 5 min, the upper layer was discarded. Methanol/water (1/1) with the same amount of volume of the lower layer was used to wash. The resultant lower layer was transferred into a small glass tube and dried down under a stream of nitrogen gas. A part of the lipid was used for lipid phosphate determination. Ames, B. N., Methods Enzymol., 8:115-118 (1966). The remainder was analyzed using HPTLC (Merck).
In order to determine whether inhibition of 1-O-acylceramide synthase was the basis for inhibitor mediated ceramide accumulation, the ceramide and diradylglycerol levels of MDCK cells treated D-threo-P4, D-threo-3′,4′-ethylenedioxy-P4, and D-threo-(4′-hydroxy)-P4 were measured (Table 9). MDCK cells (5×10^5) were seeded into a 10 cm dish and incubated for 24 h. Following the incubation, the cells were treated for 24 or 48 h with or without P4 or the phenyl substitute homologues. Both ceramide and diradylglycerol contents were determined by the method of Preis, J. et al., J. Biol. Chem., 261:8597-8600 (1986). GlcCer content was measured densitometrically by a video camera and use of NIH image 1.49. Significant increases in both ceramide and diradylglycerol occurred only in cells treated with inhibitor concentrations in excess of 1 mM. This was approximately 30-fold lower than the concentration required for inhibition of the 1-O-acylceramide synthase assayed in the cellular homogenates. […] Abe, A. et al., Biochim. Biophys. Acta, 1299:331-341 (1996).
(§3) Effects of D-threo-P4, D-threo4′-hydroxy-P4 and D-threo-3,4′-ethylenedioxy-P4 on GlcCer Synthesis and Cell Growth. To confirm the cellular specificity of D-threo-3′,4′-ethylenedioxy-P4 and D-threo-(4′-hydroxy)-P4 as compared to D-threo-P4, MDCK cells were treated with different concentrations of the inhibitors. The total protein amount in each sample was determined by the BCA method. In GlcCer analysis, lipid samples and standard lipids were applied to the same HPTLC plate pre-treated with borate and developed in a solvent consisting of C/M/W (63/24/4). The level of GlcCer was estimated from a standard curve obtained using a computerized image scanner. The values were normalized on the basis of the phospholipid content. The results are shown in FIG. 7, wherein each bar is the average values from three dishes, with error bars corresponding to one standard deviation. In the control, the total protein and GlcCer were 414±47.4 μg/dish and 24.3±1.97 ng/nmol phosphate, respectively.

[10] = system: MDCK cells; test: Cell growth of treated MDCK cells, total protein (Specific Example 2); format: cell-based, canine
Experimental: Cell culture and lipid extraction. One half million of MDCK cells were seeded into 10 cm style dish containing 8 ml serum free DMEM supplemented medium. Shayman, J. A. et al., J. Biol. Chem., 265:12135-12138 (1990). After 24 h the medium was replaced with 8 ml of the medium containing 0, 11.8, 118 or 1180 nM D-t-P4, D-t-3′,4′-ethylenedioxy-P4 or D-4′-hydroxy)-P4. The GlcCer synthase inhibitors were added into the medium as a one to one complex with delipidated BSA. Abe, A. et al., J. Lipid. Res., 36:611-621 (1995); Abe, A. et al., Biochim. Biophys. Acta, 1299:331-341 (1996). The cells were incubated for 24 h or 48 h with the inhibitors. After the incubation, the cells were washed twice with 8 ml of cold PBS and fixed with 2 ml of cold methanol. The fixed cells were scraped and transferred to a glass tube. Another one ml of methanol was used to recover the remaining cells in the dish.
as §3

potency as GlcCer synthase inhibitor, in words [1]: inferior to these dioxy derivatives
Structure (SMILES): CCCCCCCCCCCCCCCC(=O)N[C@H](CN1CCCC1)[C@H](O)c1ccc(OC)c(OC)c1 [D-t-3′,4′-dimethoxy-P4]

IC50 [3]: 2000 nM
IC50 [4]: 1000 nM
IC50 [5]: 1000 nM
IC50 ([6]; 9L, rounded off to one digit, read-out: Inhibition of tumor cell growth in vitro, IC50): 1000 nM
IC50 [7]: 1000 nM
Structure (SMILES): CCCCCCCCCCCCCCCC(=O)NC(CN1CCCC1)C(O)c1ccccc1 (racemic) [BML-119, 1-phenyl-2-palmitoylamino-3-pyrrolidino-1-propanol]
Inhibition at 5 μM ([2]; 5 μM inhibitor, 5 µM): 50% and 51 ± 2.3^e % and 49 ± 0.8^f %
% Inhibition at 80 μM ([2]; 80 μM inhibitor, 80 µM): 94 ± 1.4^b % and 97 ± 0.1^c % and 96 ± 0.1^d %
activity at 1 µM ([6]; 9L cells, 1 μM inhibitor, read-out: growth, % of control growth): 71%
activity at 3 µM ([6]; 9L cells, 3 μM inhibitor, read-out: growth, % of control growth): 3%

activity in blocking 1-O-acylceramide synthase [8]: comparable activity
Structure (SMILES): CCCCCCCCCCCCCCCC(=O)N[C@H](CN1CCCC1)[C@H](O)c1ccc(O)cc1 [D-threo-4′-hydroxy-P4, D-t-4′-hydroxy-1-phenyl-2-palmitoylamino-3-pyrrolidino-1-propanol]
potency as GlcCer synthase inhibitor, in words [1]: twice as active as the p-methoxy compound
GlcCer lost from the cells (depletion) ([9]; 11.3 nM inhibitor): Approximately 66%
Ceramide (pmol/nmol phospholipids) ([9]; 11.3 nM, 24 h): 4.29 ± 0.71 pmol/nmol phospholipids
Diradylglycerol (pmol/nmol phospholipids) ([9]; 11.3 nM, 24 h): 30.9 ± 2.01 pmol/nmol phospholipids
Ceramide (pmol/nmol phospholipids) ([9]; 11.3 nM, 48 h): 6.70 ± 0.29 pmol/nmol phospholipids
Diradylglycerol (pmol/nmol phospholipids) ([9]; 11.3 nM, 48 h): 38.4 ± 1.44 pmol/nmol phospholipids
Ceramide (pmol/nmol phospholipids) ([9]; 113 nM, 24 h): 5.09 ± 0.95 pmol/nmol phospholipids
Diradylglycerol (pmol/nmol phospholipids) ([9]; 113 nM, 24 h): 31.5 ± 3.84 pmol/nmol phospholipids
Ceramide (pmol/nmol phospholipids) ([9]; 113 nM, 48 h): 7.47 ± 0.29 pmol/nmol phospholipids
Diradylglycerol (pmol/nmol phospholipids) ([9]; 113 nM, 48 h): 41.5 ± 0.66 pmol/nmol phospholipids
level of ceramide versus untreated cells ([9]; 1130 nM): two times higher
Ceramide (pmol/nmol phospholipids) ([9]; 1130 nM, 24 h): 7.38 ± 0.13 pmol/nmol phospholipids
Diradylglycerol (pmol/nmol phospholipids) ([9]; 1130 nM, 24 h): 38.5 ± 3.84 pmol/nmol phospholipids
Ceramide (pmol/nmol phospholipids) ([9]; 1130 nM, 48 h): 13.4 ± 1.03 pmol/nmol phospholipids
Diradylglycerol (pmol/nmol phospholipids) ([9]; 1130 nM, 48 h): 47.2 ± 2.51 pmol/nmol phospholipids
total protein versus untreated cells ([10]; 1130 nM): significant decrease
total protein content versus untreated cells ([10]; 11.3 or 113 nM): little difference

From patent US6916802B2, “Amino ceramide-like compounds and therapeutic methods of use” (Genzyme Corporation, priority 2002, dated 2005)
